Like-named read-outs stand apart in the source and are kept apart here. Marks after values point to notes of the source that are not given here. Bridge positions count the residues as written; N and C are the ends. Square brackets hold non-standard residues; d marks the D form. Ends that are not written are not given here. Peptide text beside a SMILES is read from it. * marks the point of attachment. X1 = CC[C@H](C)CCCCC(=O)*; Dab = NCC[C@H](N)C(=O)O
Key:
human erythrocytes = settings: for LC50, median (50%) lethal concentration: human erythrocytes; for hemolysis: 250 µM
Method: Hemolysis was determined by incubating a 10% (vol/vol) suspension of human erythrocytes with peptides. Erythrocytes were rinsed four times in 10 mM phosphate buffer saline (PBS), pH 7.2, by repeated centrifugation and re-suspension (3 min at 3000 × g). Erythrocytes were incubated at room temperature for 1 h in either deionized water (fully haemolysed control), PBS, or with peptide in PBS. After centrifugation at 10,000 × g for 5 min, the supernatant was separated from the pellet, and the absorbance was measured at 550 nm. Absorbance of the suspension treated with deionized water defined complete hemolysis. […] All tests were done in triplicate.

[1] = test system: P. aeruginosa (ATCC27853); test: microbe, parasite or virus in culture; format: cell-based; settings: read-out: Minimum inhibitory concentrations
Method: (§1) Minimum inhibitory concentrations (MICs) were determined by broth microdilution on P. aeruginosa (ATCC27853), E. coli (K12), S. aureus (ATCC6538), M. luteus (NCIMB13267), B. subtilis (ATCC6633), S. typhimurium (DA6192) and E. faecalis (OG1X) according to the Clinical and Laboratory Standards Institute and as recommended for antimicrobial peptide testing. Typically, 100 μL of 0.5–1 × 10^6 CFU per ml of each bacterium in Mueller Hinton media broth (Oxoid) were incubated in 96-well polystyrene microtiter plates with 100 μL of serial twofold dilutions of the peptides (from 100 to 0 μM) at 37 °C on a 3D orbital shaker. The absorbance was measured after peptide addition at 600 nm using a Victor 2 plate reader (Perkin-Elmer). MICs were defined as the lowest peptide concentration after 24 h at 37 °C. The mutant strains of S. typhimurium, named using the original nomenclature, were kindly provided by Dan Andersson[55].

B. subtilis (ATCC6633) = test: microbe, parasite or virus in culture; format: cell-based; settings: read-out: Minimum inhibitory concentrations
Method: as §1

E. coli (K12) = test: microbe, parasite or virus in culture; format: cell-based; settings: read-out: Minimum inhibitory concentrations
Method: as §1

S. typhimurium (DA6192) = test: microbe, parasite or virus in culture; format: cell-based; settings: 24 h at 37 °C, triplicate, read-out: Minimum inhibitory concentrations
Method: as §1, with “Typically, 100 μL of 0.5–1 × 10^6 CFU per ml of each bacterium in Mueller Hinton media broth (Oxoid) were incubated in 96-well polystyrene microtiter plates with 100 μL of serial twofold dilutions of the peptides (from 100 to 0 μM) at 37 °C on a 3D orbital shaker.” left out

M. luteus (NCIMB13267) = test: microbe, parasite or virus in culture; format: cell-based; settings: read-out: Minimum inhibitory concentrations
Method: as §1, with “Typically, 100 μL of 0.5–1 × 10^6 CFU per ml of each bacterium in Mueller Hinton media broth (Oxoid) were incubated in 96-well polystyrene microtiter plates with 100 μL of serial twofold dilutions of the peptides (from 100 to 0 μM) at 37 °C on a 3D orbital shaker.” left out

S. aureus (ATCC6538) = test: microbe, parasite or virus in culture; format: cell-based; settings: read-out: Minimum inhibitory concentrations
Method: as §1, with “Typically, 100 μL of 0.5–1 × 10^6 CFU per ml of each bacterium in Mueller Hinton media broth (Oxoid) were incubated in 96-well polystyrene microtiter plates with 100 μL of serial twofold dilutions of the peptides (from 100 to 0 μM) at 37 °C on a 3D orbital shaker.” left out

[2] = test system: S. typhimurium DA22427 waaY (del bp17FS); test: microbe, parasite or virus in culture; format: cell-based; settings: for MIC: Salmonella enterica, TYPHIMURIUM, 24 h, read-out: Minimum inhibitory concentrations; for Minimum inhibitory concentrations: S. typhimurium mutant DA22427 waaY (del bp17FS), broth microdilution, 24 h at 37 °C, triplicate
Method: (§2) To explore these variations, the peptides were tested against cross-resistant strains of S. typhimurium, which were experimentally derived from the wild type bacterium subjected to increasing concentrations of pore-forming human HDPs[55]. Three genetic mutations were selected as candidate contributors to resistance and were reconstituted in the wild type genetic background, giving rise to the strains given in Table 2. One strain has the waaY gene mutated. This gene encodes for WaaY kinase that adds a phosphate group to the heptose II residue in the LPS inner core. The deactivation of the gene leads to decreased susceptibility to HDPs[56], as a result of reducing peptide binding to cell surfaces to the levels below those necessary to lyse the bacterium. Two other strains were mutated in pmrB and phoP genes, both of which are involved in masking phosphate groups (diminished charge) and influencing membrane fluidity (restricted motion)[58]. Finally, the fourth strain combined all three mutations (Table 2).
as §1

[3] = test system: S. typhimurium DA23899 waaY, pmrB, phoP; test: microbe, parasite or virus in culture; format: cell-based; settings: for MIC: Salmonella enterica, TYPHIMURIUM, 24 h, read-out: Minimum inhibitory concentrations; for Minimum inhibitory concentrations: S. typhimurium mutant DA23899 waaY, pmrB, phoP, broth microdilution, 24 h at 37 °C, triplicate
Method: as §2, §1

[4] = test system: S. typhimurium DA23175 pmrB (R13H); format: cell-based; settings: S. typhimurium mutant DA23175 pmrB (R13H); broth microdilution, 24 h at 37 °C, triplicate
Method: as §2, §1

[5] = test system: S. typhimurium DA23307 phoP (D23N); format: cell-based; settings: S. typhimurium mutant DA23307 phoP (D23N); broth microdilution, 24 h at 37 °C, triplicate
Method: as §2, §1

[6] = for comparison, naturally occurring HDPs; cited from earlier work
Method: The improved amphipathicity of CecM compared to CecB was evaluated by calculating the mean hydrophobic moment using HeliQuest[70]. The mean hydrophobic moment is a two-dimensional vector sum which provides a direct, quantitative measure of amphipathicity in regular repeats. The mean hydrophobic moment increases from CecB (0.296) to CecM (0.350). For comparison, values for PGLa and magainin, two naturally occurring HDPs, are 0.260 and 0.286, respectively. Percentage of secondary structure elements was calculated using STRIDE[73]. Oligomerisation simulations were performed over 500 ns fo ...

[7] = 10% (vol/vol) suspension in PBS pH 7.2, 1 h at room temperature, absorbance 550 nm, triplicate (Table 1)
[8] = S. typhimurium DA6192 (wild type, Table 2), broth microdilution
[9] = S. typhimurium (Table 1), broth microdilution (CLSI), Mueller Hinton broth, absorbance 600 nm
[10] = M. luteus, broth microdilution (CLSI), Mueller Hinton broth, 24 h at 37 °C, absorbance 600 nm, triplicate
[11] = P. aeruginosa, Ala-d3 ChoM mutants (Table S6), broth microdilution
[12] = E. coli, Ala-d3 ChoM mutants (Table S6), broth microdilution
[13] = S. aureus, Ala-d3 ChoM mutants (Table S6), broth microdilution

## CO/N=C(\C(=O)N[C@@H]1C(=O)N2C(C(=O)O)=C(CSc3nc(=O)c(=O)[nH]n3C)CS[C@H]12)c1csc(N)n1 [ceftriaxone]
Human erythrocytes; [7]
  LC50, median (50%) lethal concentration: UD (UD is for undetectable (>1000))
[1]; Pseudomonas aeruginosa, ATCC27853, P. aeruginosa, broth microdilution (CLSI), Mueller Hinton broth, serial twofold dilutions 100 to 0 μM, 24 h at 37 °C, absorbance 600 nm, triplicate
  MIC: > 25 µM
B. subtilis (ATCC6633); Bacillus subtilis, ATCC6633, B. subtilis, broth microdilution (CLSI), Mueller Hinton broth, serial twofold dilutions 100 to 0 μM, 24 h at 37 °C, absorbance 600 nm, triplicate
  MIC: < 1 µM
E. coli (K12); Escherichia coli, E. coli, broth microdilution (CLSI), Mueller Hinton broth, serial twofold dilutions 100 to 0 μM, 24 h at 37 °C, absorbance 600 nm, triplicate
  MIC: < 6 µM
S. typhimurium (DA6192); [8]
  MIC: <1 µM
S. typhimurium (DA6192); Salmonella enterica, S. typhimurium (Table 1), broth microdilution (CLSI), Mueller Hinton broth, absorbance 600 nm
  MIC: < 1 µM
M. luteus (NCIMB13267); Micrococcus luteus, NCIMB13267, M. luteus, broth microdilution (CLSI), Mueller Hinton broth, 24 h at 37 °C, absorbance 600 nm, triplicate
  MIC: < 0.5 µM
S. aureus (ATCC6538); Staphylococcus aureus, ATCC6538, S. aureus, broth microdilution (CLSI), Mueller Hinton broth, serial twofold dilutions 100 to 0 μM, 24 h at 37 °C, absorbance 600 nm, triplicate
  MIC: < 3 µM
[2]
  MIC: < 1 µM
[3]
  MIC: < 1 µM

## CCCCCCCCCC(=O)N[C@@H](Cc1c[nH]c2ccccc12)C(=O)N[C@H](CC(N)=O)C(=O)N[C@@H](CC(=O)O)C(=O)N[C@@H]1C(=O)NCC(=O)N[C@@H](CCCN)C(=O)N[C@@H](CC(=O)O)C(=O)N[C@H](C)C(=O)N[C@@H](CC(=O)O)C(=O)NCC(=O)N[C@H](CO)C(=O)N[C@@H]([C@H](C)CC(=O)O)C(=O)N[C@@H](CC(=O)c2ccccc2N)C(=O)O[C@@H]1C [daptomycin]
Human erythrocytes; pH 7.2
  hemolysis: 10%
Human erythrocytes; [7]
  LC50, median (50%) lethal concentration: >250^c µM
B. subtilis (ATCC6633); B. subtilis, broth microdilution (CLSI), Mueller Hinton broth, serial twofold dilutions 100 to 0 μM, 24 h at 37 °C, absorbance 600 nm, triplicate
  MIC: <7 µM
S. typhimurium (DA6192); [9]
  MIC: >60 µM
M. luteus (NCIMB13267); [10]
  MIC: <15 µM

## CC[C@H](C)CCCCC(=O)N[C@@H](CCN)C(=O)N[C@H](C(=O)N[C@@H](CCN)C(=O)N[C@H]1CCNC(=O)[C@H]([C@@H](C)O)NC(=O)[C@H](CCN)NC(=O)[C@H](CCN)NC(=O)[C@H](CC(C)C)NC(=O)[C@@H](Cc2ccccc2)NC(=O)[C@H](CCN)NC1=O)[C@@H](C)O [polymyxin B] (X1-[Dab]T[Dab][Dab][Dab][dF]L[Dab][Dab]T; lactam 4-C (inferred); N-terminus assumed)
S. typhimurium (DA6192); [8]
  MIC: <0.5 µM
[2]
  Minimum inhibitory concentrations: <0.5 µM
[3]
  Minimum inhibitory concentrations: <6 µM
[4]
  Minimum inhibitory concentrations: <0.5 µM
[5]
  Minimum inhibitory concentrations: <2 µM

## CN(C)[C@@H]1C(O)=C(C(N)=O)C(=O)[C@@]2(O)C(O)=C3C(=O)c4c(O)cccc4[C@@](C)(O)[C@H]3C[C@@H]12 [tetracycline]
Human erythrocytes; [7]
  LC50, median (50%) lethal concentration: UD (UD is for undetectable (>1000))
[1]; Pseudomonas aeruginosa, ATCC27853, 24 h
  MIC: < 6 µM
B. subtilis (ATCC6633); Bacillus subtilis, ATCC6633, 24 h
  MIC: < 0.5 µM
E. coli (K12); Escherichia coli, 24 h
  MIC: < 1.5 µM
S. typhimurium (DA6192); [9]
  MIC: <1 µM
S. typhimurium (DA6192); Salmonella enterica, S. typhimurium DA6192 (wild type, Table 2), broth microdilution
  MIC: < 1 µM
M. luteus (NCIMB13267); Micrococcus luteus, NCIMB13267, 24 h
  MIC: < 0.5 µM
S. aureus (ATCC6538); Staphylococcus aureus, ATCC6538, 24 h
  MIC: < 0.5 µM
[2]
  MIC: < 1 µM
[3]
  MIC: < 1 µM

## KWKAFKKIEKMIRNIRNKIVK [V4A]
Human erythrocytes
  hemolysis: 1-2%
Human erythrocytes; Ala-d3 ChoM mutants (Table S6)
  LC50, median (50%) lethal concentration: > 250 µM
[1]; [11]
  MIC: > 3 µM
E. coli (K12); [12]
  MIC: > 3 µM
S. aureus (ATCC6538); [13]
  MIC: > 12 µM

## KWKVFKKAEKMIRNIRNKIVK [I8A]
Human erythrocytes; Ala-d3 ChoM mutants (Table S6)
  LC50, median (50%) lethal concentration: > 250 µM
[1]; [11]
  MIC: > 6 µM
E. coli (K12); [12]
  MIC: > 3 µM
S. aureus (ATCC6538); [13]
  MIC: > 25 µM

## KWKVFKKIEKMGRNIRNGIVK-NH2 [ChoC]
Human erythrocytes; [7]
  LC50, median (50%) lethal concentration: >250^d µM
S. typhimurium (DA6192); [9]
  MIC: >12 µM
S. typhimurium (DA6192); [8]
  MIC: >12 µM
M. luteus (NCIMB13267); [10]
  MIC: <1 µM
[2]
  Minimum inhibitory concentrations: >12 µM
[3]
  Minimum inhibitory concentrations: >25 µM
[4]
  Minimum inhibitory concentrations: >25 µM
[5]
  Minimum inhibitory concentrations: >25 µM

## KWKVFKKIEKMGRNIRNGIVKAGPAIAVLGEAKAL-NH2 [CecB, Cecropin B]
Human erythrocytes; [7]
  LC50, median (50%) lethal concentration: >250^d µM
S. typhimurium (DA6192); [9]
  MIC: <3 µM
S. typhimurium (DA6192); [8]
  MIC: <3 µM
M. luteus (NCIMB13267); [10]
  MIC: <1 µM
[2]
  Minimum inhibitory concentrations: <3 µM
[3]
  Minimum inhibitory concentrations: >6 µM
[4]
  Minimum inhibitory concentrations: <3 µM
[5]
  Minimum inhibitory concentrations: <3 µM

## KWKVLKKKIKMLRNRINGLVKAGPALKVKLQALAL-NH2 [CecM]
Human erythrocytes; [7]
  LC50, median (50%) lethal concentration: >250^d µM
S. typhimurium (DA6192); [9]
  MIC: <1 µM
S. typhimurium (DA6192); [8]
  MIC: <1 µM
M. luteus (NCIMB13267); [10]
  MIC: <1 µM
[2]
  Minimum inhibitory concentrations: <1 µM
[3]
  Minimum inhibitory concentrations: <2 µM
[4]
  Minimum inhibitory concentrations: <1 µM
[5]
  Minimum inhibitory concentrations: <2 µM

## PGLa
[6]
  mean hydrophobic moment: 0.260

## magainin
[6]
  mean hydrophobic moment: 0.286
